Test results reported in patent US9440941B2, “Substituted chroman-6-yloxy-cycloalkanes and their use as pharmaceuticals” (SANOFI, priority 2013, dated 2016).
Structures can show the parent of a compound that is named as a salt.

Target: T1, human NCX1 (Homo sapiens, UniProt P32418)
T1 construct: expressed in transfected cells
Test: Inhibition of Ca2+ influx into cells (NCX1 reverse mode), FLIPR Fluo-4 assay
Assay type: cell-based
Conditions: inhibition of NCX1 in reverse mode (Ca2+ influx into cells); read-out: NCX1rv IC50
Source text: The sodium/calcium exchanger NCX1 can transport calcium ions and sodium ions through the cell membrane. The transport is an exchange of Ca^2+ and Na^+ in two directions depending on membrane potential and ion gradients. At the first direction, named “forward mode” or “calcium export mode”, Ca^2+ is transported out of the cell and Na^+ is transported into the cell. At the other direction, named “reverse mode” or “calcium import mode”, the transport directions are vice versa. The effect of the compounds of the invention on NCX1 was determined in CHO cells stably expressing human NCX1 (gene symbol SLC8A1; cf. WO 2009/115238). The assay is based on the monitoring of intracellular Ca^2+ concentrations using a calcium-sensitive fluorescence dye which is detected by means of a FLIPR device (Fluorimetric Imaging Plate Reader, Molecular Devices).
Assay Technology—Reverse Mode
The assay is based on the monitoring of intracellular Ca^2+ concentrations using the calcium-sensitive dye Fluo-4. CHO cells expressing NCX1 were loaded with the dye by means of the acetoxymethyl ester Fluo-4 AM (Invitrogen, F14202), which is cleaved intracellularly by esterase activity to yield the charged species of free Fluo-4. After an preincubation period with the test compound, Gramicidine (Sigma, G5002) was added. Gramicidine is an ionophor for Na^+ ions mediating an increase of intracellular Na^+ ions. Consequently, intracellular Na^+ ions are exchanged against extracellular Ca^2+ ions (Ca^2+ influx, reverse mode). The intracellular elevation of Ca^2+ ions was detected by measuring the fluorescence of Fluo-4 at a wavelength of 520 nm by a FLIPR device.
Briefly, for the reverse mode transport assay 18000 cells per well were seeded into a 96 well microplate (Corning COSTAR 3904) and incubated overnight in culture medium (1× Nut Mix F12 (Ham) (Gibco, 21765-029); 10% (v/v) fetal calf serum (PAA Gold, A15-649); 450 μg/ml Geneticin (Gibco, 10131-027)). A total volume of 100 μl medium per well was used. For the preparation of the FLIPR assay, the culture medium was removed from the plates and 100 μl of dye solution (2 μM Fluo-4 AM; 0.02% (v/v) Pluronic F-127 (20%, Invitrogen, P3000MP); 0.1% (v/v) bovine albumin solution (30% (v/v), Sigma, A9205) in assay buffer (133.8 mM NaCl (Sigma, S5886); 4.7 mM KCl (Sigma, P3911); 1.25 mM MgCl2 (Merck, 1.05833.0250); 3.5 mM CaCl2 (Merck, 1.02083.0250); 5 mM glucose (Sigma, G7021); 10 mM Hepes (Sigma, H4034); 0.01% (v/v) Pluronic F-127 (5%, Sigma, P2443); 2.5 mM Probenecid (Maybridge, SB00915EB); pH 7.4)) were added into each well. The plates were incubated in the dark at room temperature for 80 min. After the incubation period, the dye solution was removed and the wells were washed with 100 μl of assay buffer. Then 80 μl of a solution of the test compound in assay buffer in different concentrations were added into the wells. The plates were incubated at 16° C. for 45 min. Meanwhile a 60 μM solution of Gramicidine in assay buffer (4° C.) was prepared and stored in the wells of a 96 well microplate (96 well microplate, polypropylene, U-shape (Greiner Bio-One, 650201)) at 4° C. until measurement was started. The fluorescence monitoring was performed at 240 measuring points with measurement intervals of 2 sec. After the fifth measuring point, 40 μl of the Gramicidine solution were added to each well of the assay plates to give a final Gramicidine concentration of 20 μM. For the determination of the IC50 values the minimal fluorescence value was subtracted from the maximal fluorescence value for all measuring points. The calculation of the IC50 values via the percentage inhibitions of Ca^2+ influx into cells (reverse mode) effected by the test compound was performed in Biost@t Speed 2.0.

| IC50 [nM] | SMILES |
| --- | --- |
| 1500 | Cc1n[nH]c(C)c1CC(=O)N[C@H]1CC[C@H](Oc2ccc3c(c2)CCC(c2ccccc2F)O3)CC1 (relative stereo) [compound 235] |
| 100 | CCC(C)(O)C(=O)N[C@H]1CC[C@H](Oc2ccc3c(c2)CCC(c2ccccc2F)O3)CC1 (relative stereo) [compound 238] |
| 100 | O=C(N[C@H]1CC[C@H](Oc2ccc3c(c2)CCC(c2ccccc2F)O3)CC1)C1CC1 (relative stereo) [compound 239] |
| 40 | CSCC(=O)N[C@H]1CC[C@H](Oc2ccc3c(c2)CCC(c2ccccc2F)O3)CC1 (relative stereo) [compound 241] |
| 500 | Cc1noc(C)c1C(=O)N[C@H]1CC[C@H](Oc2ccc3c(c2)CCC(c2ccccc2F)O3)CC1 (relative stereo) [compound 242] |
| 700 | COCCC(=O)N[C@H]1CC[C@H](Oc2ccc3c(c2)CCC(c2ccccc2F)O3)CC1 (relative stereo) [compound 243] |
| 300 | Cc1nc(CC(=O)N[C@H]2CC[C@H](Oc3ccc4c(c3)CCC(c3ccccc3F)O4)CC2)c(C)s1 (relative stereo) [compound 245] |
| 100 | O=C(N[C@H]1CC[C@H](Oc2ccc3c(c2)CCC(c2ccccc2F)O3)CC1)c1ccncc1F (relative stereo) [compound 246] |
| 300 | Cc1nc(C(=O)N[C@H]2CC[C@H](Oc3ccc4c(c3)CCC(c3ccccc3F)O4)CC2)cs1 (relative stereo) [compound 247] |
| 200 | Cc1noc(CCC(=O)N[C@H]2CC[C@H](Oc3ccc4c(c3)CCC(c3ccccc3F)O4)CC2)n1 (relative stereo) [compound 248] |
| 1100 | Cc1cc(CC(=O)N[C@H]2CC[C@H](Oc3ccc4c(c3)CCC(c3ccccc3F)O4)CC2)on1 (relative stereo) [compound 249] |
| 800 | Cc1ccn(CC(=O)N[C@H]2CC[C@H](Oc3ccc4c(c3)CCC(c3ccccc3F)O4)CC2)n1 (relative stereo) [compound 250] |
| 300 | O=C(CC1CC1)N[C@H]1CC[C@H](Oc2ccc3c(c2)CCC(c2ccccc2F)O3)CC1 (relative stereo) [compound 252] |
| 200 | Cc1ccnn1CCC(=O)N[C@H]1CC[C@H](Oc2ccc3c(c2)CCC(c2ccccc2F)O3)CC1 (relative stereo) [compound 257] |
| 200 | Cc1c(CCC(=O)N[C@H]2CC[C@H](Oc3ccc4c(c3)CCC(c3ccccc3F)O4)CC2)cnn1C (relative stereo) [compound 258] |
| 300 | Cc1cc(C(=O)N[C@H]2CC[C@H](Oc3ccc4c(c3)CCC(c3ccccc3F)O4)CC2)n[nH]1 (relative stereo) [compound 261] |

Continued, compound first:

| SMILES | IC50 [nM] |
| --- | --- |
| Cc1cccc(C)c1C1CCc2cc(O[C@H]3CC[C@H](N)CC3)ccc2O1 (relative stereo) [compound 168, hydrochloride] | 4000 |
| Cc1cccc(C)c1C1CCc2cc(O[C@H]3CC[C@H](NCC4CCOC4)CC3)ccc2O1 (relative stereo) [compound 171] | 8300 |
| Cc1cccc(C)c1C1CCc2cc(O[C@H]3CC[C@H](NC(=O)CCn4cccn4)CC3)ccc2O1 (relative stereo) [compound 172] | 7100 |
| N[C@H]1CC[C@H](Oc2ccc3c(c2)CCC(c2ccccc2F)O3)CC1 (relative stereo) [compound 176, hydrochloride] | 1300 |
| Fc1ccccc1C1CCc2cc(O[C@H]3CC[C@H](NCC4CCOC4)CC3)ccc2O1 (relative stereo) [compound 178] | 1600 |
| O=C(CN1CCCC1)N[C@H]1CC[C@H](Oc2ccc3c(c2)CCC(c2ccccc2)O3)CC1 (relative stereo) [compound 182] | 300 |
| Cc1ccccc1C1CCc2cc(O[C@H]3CC[C@@H](CNC(=O)CN)CC3)ccc2O1 (relative stereo) [compound 185, hydrochloride] | 600 |
| Cc1ccc(F)cc1C1CCc2cc(O[C@H]3CC[C@H](NC(=O)CN)CC3)ccc2O1 (relative stereo) [compound 186] | 400 |
| Cc1n[nH]c(C)c1CCC(=O)N[C@H]1CC[C@H](Oc2ccc3c(c2)CCC(c2ccccc2F)O3)CC1 (relative stereo) [compound 234] | 100 |
| O=C(Cn1cccn1)N[C@H]1CC[C@H](Oc2ccc3c(c2)CCC(c2ccccc2F)O3)CC1 (relative stereo) [compound 236] | 100 |
| O=C(CCn1cncn1)N[C@H]1CC[C@H](Oc2ccc3c(c2)CCC(c2ccccc2F)O3)CC1 (relative stereo) [compound 237] | 200 |
| O=C(CC(F)(F)F)N[C@H]1CC[C@H](Oc2ccc3c(c2)CCC(c2ccccc2F)O3)CC1 (relative stereo) [compound 240] | 100 |
| O=C(N[C@H]1CC[C@H](Oc2ccc3c(c2)CCC(c2ccccc2F)O3)CC1)C1CC1(F)F (relative stereo) [compound 251] | 5000 |
| Cc1nn(C)c(C)c1CCC(=O)N[C@H]1CC[C@H](Oc2ccc3c(c2)CCC(c2ccccc2F)O3)CC1 (relative stereo) [compound 254] | 300 |
| O=C(Cn1cncn1)N[C@H]1CC[C@H](Oc2ccc3c(c2)CCC(c2ccccc2F)O3)CC1 (relative stereo) [compound 256] | 100 |
| CS(=O)(=O)CCC(=O)N[C@H]1CC[C@H](Oc2ccc3c(c2)CCC(c2ccccc2F)O3)CC1 (relative stereo) [compound 259] | 100 |
| O=C(CSC(F)(F)F)N[C@H]1CC[C@H](Oc2ccc3c(c2)CCC(c2ccccc2F)O3)CC1 (relative stereo) [compound 260] | 400 |
| Cc1ccccc1C1CCc2cc(O[C@H]3CC[C@@H](C(=O)Nc4ccccn4)CC3)ccc2O1 (relative stereo) [compound 265] | 400 |
| Cc1ccccc1C1CCc2cc(O[C@H]3CC[C@H](C(=O)Nc4ccccn4)CC3)ccc2O1 (relative stereo) [compound 266] | 300 |
| Cc1ccccc1C1CCc2cc(O[C@H]3CC[C@H](NCC(=O)O)CC3)ccc2O1 (relative stereo) [compound 271] | 800 |
| O=C(CO)N[C@H]1CC[C@H](Oc2ccc3c(c2)CCC(c2ccccc2)O3)CC1 (relative stereo) [compound 278] | 200 |
| N[C@H]1C[C@@H](Oc2ccc3c(c2)CCC(c2ccccc2)O3)C1 (relative stereo) [compound 306, hydrochloride] | 1600 |
| NC1(Cc2ccccc2)CCC(Oc2ccc3c(c2)CCC(c2ccccc2)O3)CC1 (single isomer, unassigned) [compound 45, 1-Benzyl-4-(2-phenylchroman-6-yloxy)-cyclohexylamine, stereoisomeric mixture 1] | 22000 |
| NC1(Cc2ccccc2)CCC(Oc2ccc3c(c2)CCC(c2ccccc2)O3)CC1 (single isomer, unassigned) [compound 46, 1-Benzyl-4-(2-phenylchroman-6-yloxy)-cyclohexylamine, stereoisomeric mixture 2] | 11000 |
| O=C(CCn1cccn1)N[C@H]1CC[C@H](Oc2ccc3c(c2)CCC(c2ccccc2F)O3)CC1 (single isomer, unassigned) [compound 179] | 1200 |
| O=C(CCn1cccn1)N[C@H]1CC[C@H](Oc2ccc3c(c2)CCC(c2ccccc2F)O3)CC1 (single isomer, unassigned) [compound 253] | 300 |
| Cc1c(F)cccc1C1CCc2cc(OC3CCC(C(=O)NC4CCCCC4O)CC3)ccc2O1 (single isomer, unassigned) [compound 285] | 500 |
| Cc1c(F)cccc1C1CCc2cc(OC3CCC(C(=O)NC4CCCCC4O)CC3)ccc2O1 (single isomer, unassigned) [compound 286] | 500 |
